Reference: patent publication US8283353B2, “Fused ring compound and use thereof” (Takeda Pharmaceutical Company Limited, priority 2009, dated 2012)

Legend:
human AT1 receptor = target: T1, human AT1 receptor (Homo sapiens, UniProt P30556); assay: AT1 receptor antagonistic activity: [125I]-angiotensin II binding assay on human AT1 receptor-expressing CHO-K1 cellular membrane fraction; settings: 22.5 pM [125I]-angiotensin II, 1 hr room temperature
T1 construct: expressed in transfected cells; membrane fraction
T1 sequence (P30556 1-359): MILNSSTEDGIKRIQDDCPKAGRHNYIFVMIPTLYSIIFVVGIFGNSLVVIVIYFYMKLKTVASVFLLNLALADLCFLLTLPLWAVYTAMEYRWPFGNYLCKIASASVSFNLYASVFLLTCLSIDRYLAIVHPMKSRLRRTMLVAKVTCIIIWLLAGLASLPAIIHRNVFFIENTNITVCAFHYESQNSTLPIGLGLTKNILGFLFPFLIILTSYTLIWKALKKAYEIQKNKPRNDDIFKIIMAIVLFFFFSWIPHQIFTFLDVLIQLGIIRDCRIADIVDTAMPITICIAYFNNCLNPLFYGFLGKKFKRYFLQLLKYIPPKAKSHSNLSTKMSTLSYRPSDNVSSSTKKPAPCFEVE
Procedure, shortened: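 Competition binding used radiolabelled angiotensin II on stably transfected CHO-K1 membrane fractions in Tris pH 7.4/MgCl2 buffer, optionally containing 0.3 mg/mL fatty acid-free BSA, 1 hr at room temperature. Filtration onto GF/C separated bound tracer, and nonspecific binding was measured with candesartan.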

human PPARγ = target: T2, human PPARγ (Homo sapiens, UniProt P37231); assay: PPARγ agonistic activity: luciferase reporter assay in PPARγ:RXRα:4ERPP/CHO-K1 cells; format: cell-based; settings: CHO-K1, test compound 10^−6 M; luciferase activity of control compound X (1 μM) = 100%, non-administration group = 0%
T2 construct: expressed in transfected cells
T2 sequence (P37231 1-477 isoform P37231-2): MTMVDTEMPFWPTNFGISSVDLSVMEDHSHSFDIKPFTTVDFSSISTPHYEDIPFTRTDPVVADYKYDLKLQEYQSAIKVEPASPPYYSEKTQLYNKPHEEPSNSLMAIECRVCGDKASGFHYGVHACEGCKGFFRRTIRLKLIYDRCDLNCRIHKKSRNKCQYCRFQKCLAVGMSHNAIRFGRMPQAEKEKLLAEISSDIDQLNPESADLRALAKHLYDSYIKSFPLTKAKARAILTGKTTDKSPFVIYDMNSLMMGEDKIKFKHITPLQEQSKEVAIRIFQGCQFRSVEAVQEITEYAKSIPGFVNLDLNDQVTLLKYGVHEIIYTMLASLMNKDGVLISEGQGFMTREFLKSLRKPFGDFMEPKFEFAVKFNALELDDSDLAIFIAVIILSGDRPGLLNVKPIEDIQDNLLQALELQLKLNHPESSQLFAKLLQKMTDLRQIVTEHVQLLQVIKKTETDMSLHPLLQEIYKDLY
T2 sequence (P19793 1-462 partner): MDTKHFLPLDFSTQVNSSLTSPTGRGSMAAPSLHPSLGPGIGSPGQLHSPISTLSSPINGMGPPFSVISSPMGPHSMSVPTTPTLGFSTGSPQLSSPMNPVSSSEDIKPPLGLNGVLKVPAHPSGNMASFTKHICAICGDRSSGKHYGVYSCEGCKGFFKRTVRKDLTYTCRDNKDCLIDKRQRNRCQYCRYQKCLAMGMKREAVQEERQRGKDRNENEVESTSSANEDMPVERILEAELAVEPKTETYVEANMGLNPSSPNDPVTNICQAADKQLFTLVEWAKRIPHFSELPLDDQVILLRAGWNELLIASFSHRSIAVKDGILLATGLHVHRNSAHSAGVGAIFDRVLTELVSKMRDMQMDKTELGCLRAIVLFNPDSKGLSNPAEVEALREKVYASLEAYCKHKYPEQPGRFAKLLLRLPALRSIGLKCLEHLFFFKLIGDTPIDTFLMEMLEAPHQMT
Procedure, shortened: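 CHO-K1 cells stably carrying hPPARγ/RXRα and a 4ERPP luciferase reporter, dosed with test compound for 1 day at 37 °C in Ham's F12 with 0.1% fatty acid-free BSA. Luciferase read by luminescence; activity given as % of 1 μM control compound X (100%) versus untreated (0%).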

SMILES | IC50 (human AT1 receptor) | activation at 1 µM (human PPARγ)
CCCc1c(Cc2ccc(-c3ccccc3-c3nnn[nH]3)cc2)c(=O)n([C@H]2CC[C@H](c3cnco3)CC2)c2ncnn12 [Example 185, 4-[trans-4-(1,3-oxazol-5-yl)cyclohexyl]-7-propyl-6-{[2′-(1H-tetrazol-5-yl)biphenyl-4-yl]methyl}[1,2,4]triazolo[1,5-a]pyrimidin-5(4H)-one] | 2.3 nM | 22%
CCCc1c(Cc2ccc(-c3ccccc3-c3noc(=O)[nH]3)cc2)c(=O)n(C2CCC3(CC2)O[C@H]2COC[C@H]2O3)c2ncnn12 (some centres unmarked) [Example 293, 6-{[2′-(5-oxo-4,5-dihydro-1,2,4-oxadiazol-3-yl)biphenyl-4-yl]methyl}-7-propyl-4-(tetrahydrospiro[cyclohexane-1,2′-furo[3,4-d][1,3]dioxol]-4-yl)[1,2,4]triazolo[1,5-a]pyrimidin-5(4H)-one] | 2.3 nM | 28%
CCCc1c(Cc2ccc(-c3ccccc3-c3noc(=O)[nH]3)cc2)c(=O)n([C@H]2CC[C@@]3(CCC(CO)O3)CC2)c2ncnn12 (stereo partly drawn) [Example 392, 4-[(5R,8R)-2-(hydroxymethyl)-1-oxaspiro[4.5]dec-8-yl]-6-{[2′-(5-oxo-4,5-dihydro-1,2,4-oxadiazol-3-yl)biphenyl-4-yl]methyl}-7-propyl[1,2,4]triazolo[1,5-a]pyrimidin-5(4H)-one] | 2.2 nM | 20%
CCCc1c(Cc2ccc(-c3ccccc3-c3noc(=O)[nH]3)cc2F)c(=O)n([C@H]2CC[C@](C)(OCC(C)(C)O)CC2)c2nc(C)nn12 [Example 368, 6-{[3-fluoro-2′-(5-oxo-4,5-dihydro-1,2,4-oxadiazol-3-yl)biphenyl-4-yl]methyl}-4-[trans-4-(2-hydroxy-2-methylpropoxy)-4-methylcyclohexyl]-2-methyl-7-propyl[1,2,4]triazolo[1,5-a]pyrimidin-5(4H)-one] | 2.2 nM | 19%
CCCc1c(Cc2ccc(-c3ccccc3-c3noc(=O)[nH]3)cc2F)c(=O)n(Cc2ccc(OC)cc2OC)c2ncnn12 [Example 37, 4-(2,4-dimethoxybenzyl)-6-{[3-fluoro-2′-(5-oxo-4,5-dihydro-1,2,4-oxadiazol-3-yl)biphenyl-4-yl]methyl}-7-propyl[1,2,4]triazolo[1,5-a]pyrimidin-5(4H)-one] | 2.5 nM | 33%
CCCc1c(Cc2ccc(-c3ccccc3-c3noc(=O)[nH]3)cc2)c(=O)n([C@H]2CC[C@H](OCC(O)(CC)CC)CC2)c2ncnn12 [Example 225, 4-[trans-4-(2-ethyl-2-hydroxybutoxy)cyclohexyl]-6-{[2′-(5-oxo-4,5-dihydro-1,2,4-oxadiazol-3-yl)biphenyl-4-yl]methyl}-7-propyl[1,2,4]triazolo[1,5-a]pyrimidin-5(4H)-one] | 2.3 nM | 21%
CCCc1c(Cc2ccc(-c3ccccc3-c3noc(=O)[nH]3)cc2F)c(=O)n([C@H]2CC[C@H](OC(C)C#N)CC2)c2nc(C)nn12 (stereo partly drawn) [Example 249, 2-({trans-4-[6-{[3-fluoro-2′-(5-oxo-4,5-dihydro-1,2,4-oxadiazol-3-yl)biphenyl-4-yl]methyl}-2-methyl-5-oxo-7-propyl[1,2,4]triazolo[1,5-a]pyrimidin-4(5H)-yl]cyclohexyl}oxy)propanenitrile] | 2.5 nM | 35%
CCCc1c(Cc2ccc(-c3ccccc3-c3noc(=O)[nH]3)cc2)c(=O)n(C2CCN(c3ccc(O)cc3)CC2)c2ncnn12 [Example 382, 4-[1-(4-hydroxyphenyl)piperidin-4-yl]-6-{[2′-(5-oxo-4,5-dihydro-1,2,4-oxadiazol-3-yl)biphenyl-4-yl]methyl}-7-propyl[1,2,4]triazolo[1,5-a]pyrimidin-5(4H)-one] | 2.9 nM | 35%
CCCc1c(Cc2ccc(-c3ccccc3-c3noc(=O)[nH]3)cc2)c(=O)n([C@H]2CC[C@@H](OCCO)CC2)c2nc(C)nn12 [Example 288, 4-[cis-4-(2-hydroxyethoxy)cyclohexyl]-2-methyl-6-{[2′-(5-oxo-4,5-dihydro-1,2,4-oxadiazol-3-yl)biphenyl-4-yl]methyl}-7-propyl[1,2,4]triazolo[1,5-a]pyrimidin-5(4H)-one] | 2.7 nM | 17%

Results, then the compound that gave them:

IC50 (human AT1 receptor) | activation at 1 µM (human PPARγ) | SMILES
2.2 nM | 23% | CCCCc1c(Cc2ccc(-c3ccccc3-c3noc(=O)[nH]3)cc2)c(=O)n([C@H]2CC[C@H](OC(C)C(C)(C)O)CC2)c2ncnn12 (stereo partly drawn) [Example 206, 7-butyl-4-[trans-4-(2-hydroxy-1,2-dimethylpropoxy)cyclohexyl]-6-{[2′-(5-oxo-4,5-dihydro-1,2,4-oxadiazol-3-yl)biphenyl-4-yl]methyl}[1,2,4]triazolo[1,5-a]pyrimidin-5(4H)-one]
2 nM | 16% | CCCc1c(Cc2ccc(-c3ccccc3-c3noc(=O)[nH]3)cc2)c(=O)n(C(C)/C(C)=N/OCC)c2nc(C)nn12 (centres unmarked) [Example 114, 4-[(2E)-2-(ethoxyimino)-1-methylpropyl]-2-methyl-6-{[2′-(5-oxo-4,5-dihydro-1,2,4-oxadiazol-3-yl)biphenyl-4-yl]methyl}-7-propyl[1,2,4]triazolo[1,5-a]pyrimidin-5(4H)-one]
1.9 nM | 24% | CCCc1c(Cc2ccc(-c3ccccc3-c3noc(=O)[nH]3)cc2)c(=O)n([C@H]2CC[C@H](OCC(C)=O)CC2)c2ncnn12 [Example 215, 6-{[2′-(5-oxo-4,5-dihydro-1,2,4-oxadiazol-3-yl)biphenyl-4-yl]methyl}-4-[trans-4-(2-oxopropoxy)cyclohexyl]-7-propyl[1,2,4]triazolo[1,5-a]pyrimidin-5(4H)-one]
1.9 nM | 52% | CCCCc1c(Cc2ccc(-c3ccccc3-c3noc(=O)[nH]3)cc2)c(=O)n(C2CCC(OC)CC2)c2ncnn12 (centres unmarked) [Example 148, 7-butyl-4-(4-methoxycyclohexyl)-6-{[2′-(5-oxo-4,5-dihydro-1,2,4-oxadiazol-3-yl)biphenyl-4-yl]methyl}[1,2,4]triazolo[1,5-a]pyrimidin-5(4H)-one]
1.9 nM | 27% | CCCc1c(Cc2ccc(-c3ccccc3-c3noc(=O)[nH]3)cc2)c(=O)n([C@H]2CC[C@H](OCC(O)C(F)(F)F)CC2)c2ccnn12 (relative stereo) [Example 428, 6-{[2′-(5-oxo-4,5-dihydro-1,2,4-oxadiazol-3-yl)biphenyl-4-yl]methyl}-7-propyl-4-[trans-4-(3,3,3-trifluoro-2-hydroxypropoxy)cyclohexyl]pyrazolo[1,5-a]pyrimidin-5(4H)-one]
1.4 nM | 58% | CCCc1c(Cc2ccc(-c3ccccc3-c3noc(=O)[nH]3)cc2)c(=O)n([C@H]2CC[C@]3(CCCO3)CC2)c2ncnn12 [Example 150, 4-[(5S,8S)-1-oxaspiro[4.5]dec-8-yl]-6-{[2′-(5-oxo-4,5-dihydro-1,2,4-oxadiazol-3-yl)biphenyl-4-yl]methyl}-7-propyl[1,2,4]triazolo[1,5-a]pyrimidin-5(4H)-one]
1.9 nM | 25% | CCCc1c(Cc2ccc(-c3ccccc3-c3noc(=O)[nH]3)cc2)c(=O)n(C2CCC(=NOC)CC2)c2ncnn12 (centres unmarked) [Example 188, 4-[4-(methoxyimino)cyclohexyl]-6-{[2′-(5-oxo-4,5-dihydro-1,2,4-oxadiazol-3-yl)biphenyl-4-yl]methyl}-7-propyl[1,2,4]triazolo[1,5-a]pyrimidin-5(4H)-one]
